Test results from US20150374705A1, “Substances for treatment or relief of pain” (Shanghai Institues for Biological Sciences, priority 2012, published 2015).
Entries after “also recorded” stand apart in the source; their conditions may differ.

Columns and labels:
[1] = tested on: CFA induced inflammatory pain model rats (mechanical pain); test: CFA induced inflammatory pain model, mechanical pain threshold; format: in vivo; conditions: rat, 1 hour after administration
[2] = target: T1, Human recombinant GABAA receptor containing α3 subunit (α3, β3, γ2) (Homo sapiens, UniProt P18507+P34903); test: Competitive radioligand binding ([3H]Ro-0151788) on membranes of 293 cells, Ki; conditions: human recombinant GABAA subtype containing α3; read-out: Affinity, nM (α3)
T1 construct: expressed in transfected cells; host or cells: 293 cell line
Protocol: (§1) Different subunits of GABAA receptor were expressed in cell lines, including human kidney epithelial cell line, 293 cell line or L(tk−) cell line. The cells were cultured in medium, and such cells were used as the cellular model for screening drugs to suppress pain. a subunit, β subunit and γ subunit are indispensable for one complete functional GABAA receptor.
(§2) In this example, the inventors established the following cellular models:
(§3) (d) simultaneously expressing α3 subunit (for the protein sequence, see GenBank accession number NM_000808.3), β3 subunit and γ2 subunit in 293 cell line, forming the GABAA receptor containing α3 subunit;
(§4) Each of the (a) to (d) above could form a GABAA receptor with complete function.
(§5) Then, the cellular membrane was extracted and the protein concentration was measured. The competitive binding of the substances to be measured and radiolabelled compounds (e.g. 1 nM [^3H]Ro-0151788) were detected respectively to calculate the Ki value of the substances to be measured, see the method described in literature (Ballard T M et al., RO4938581, a novel cognitive enhancer acting at GABAA alpha5 subunit-containing receptors. Psychopharmacology (Berl). 2009 January; 202(1-3): 207-23). If the binding inhibition constant Ki (nM) of α5-GABAA receptor with the candidate substances in experimental group is less than the Ki of the receptor containing other a subunit (α1 subunit, α2 subunit or α3 subunit), then the candidate substance is a potential drugs for preventing, relieving or treating pain. Many methods can be used by those skilled in the art to evaluate the binding capacity of the ligand of α5-GABAA receptor to the α5-GABAA receptor, including but not limiting to the method above.

[3] = target: T2, Human recombinant GABAA receptor containing α5 subunit (α5, β3, γ2) (Homo sapiens, UniProt P18507+P31644); test: as above; conditions: human recombinant GABAA subtype containing α5; read-out: Affinity, nM (α5)
T2 construct: expressed in transfected cells; host or cells: 293 cell line
Protocol: as §1, §2
(§6) (a) simultaneously expressing α5 subunit (for the protein sequence, see GenBank accession number NM_001165037.1), β3 subunit (for the protein sequence, see GenBank accession number NM_021912.4) and γ2 subunit (for the protein sequence, see GenBank accession number NM_198904.2) in 293 cell line, forming the GABAA receptor containing α5 subunit;
as §4, §5

[4] = target: T3, Human recombinant GABAA receptor containing α2 subunit (α2, β3, γ2) (Homo sapiens, UniProt P18507+P47869); test: as above; conditions: human recombinant GABAA subtype containing α2; read-out: Affinity, nM (α2)
T3 construct: expressed in transfected cells; host or cells: 293 cell line
Protocol: as §1, §2
(§7) (b) simultaneously expressing α1 subunit (GenBank accession number: NM_001127648.1), β3 subunit and γ2 subunit in 293 cell line, forming the GABAA receptor containing α1 subunit; • (c) simultaneously expressing α2 subunit (for the protein sequence, see GenBank accession number NM_000813.2), β3 subunit and γ2 subunit in 293 cell line, forming the GABAA receptor containing α2 subunit;
as §4, §5

[5] = target: T4, Human recombinant GABAA receptor containing α1 subunit (α1, β3, γ2) (Homo sapiens, UniProt P14867+P18507); test: as above; conditions: human recombinant GABAA subtype containing α1; read-out: Affinity, nM (α1)
T4 construct: expressed in transfected cells; host or cells: 293 cell line
Protocol: as §1, §2, §7, §4, §5

[6] = target: T5, Human recombinant GABAA receptor containing α3 subunit (Homo sapiens, UniProt P18507+P34903); test: Electrophysiological inverse agonist efficacy on GABA-induced current; format: cell-based; conditions: change of GABA-induced current; negative = inhibition
T5 construct: expressed in transfected cells; host or cells: 293 cell line
Protocol: as §1, §3
(§8) The inventors used electrophysiological methods to measure the inverse agonist efficacy of the substances to be measured, see the method described in literature (Ballard T M et al., RO4938581, a novel cognitive enhancer acting at GABAA alpha5 subunit-containing receptors. Psychopharmacology (Berl). 2009 January; 202 (1-3): 207-23). […] Many methods can be used by those skilled in the art to evaluate the binding capacity of the ligand of α5-GABAA receptor to the α5-GABAA receptor, including but not limiting to the method above.
(§9) Inverse agonist efficacy represents the inhibition percentage of the candidate substance on the current induced by GABA through α5-GABAA receptor=(the current intensity induced by GABA through α5-GABAA receptor with the existence of candidate substance−the current intensity induced by GABA through α5-GABAA receptor without the existence of candidate substance)/the current intensity induced by GABA through α5-GABAA receptor without the existence of candidate substance.

[7] = tested on: CFA induced inflammatory pain model rats (heat pain); test: CFA induced inflammatory pain model, heat pain threshold; format: in vivo; conditions: rat, 1 hour after administration
[8] = target: T6, Human recombinant α5-GABAA receptor (Homo sapiens, UniProt P18507+P31644); test: Electrophysiological inverse agonist efficacy on GABA-induced current; format: cell-based; conditions: change of GABA-induced current; negative = inhibition
T6 construct: expressed in transfected cells; host or cells: 293 cell line
Protocol: as §1, §6, §8, §9

[9] = tested on: α5-GABAA receptor in central nervous system; conditions: in vivo, Jones et al. 2006; cited from earlier work
[10] = human, Phase I; cited from earlier work
[11] = tested on: SNI model rats (neuropathic pain); test: Spared nerve injury (SNI) model, neuropathic pain, mechanical pain threshold; format: in vivo; conditions: rat
Protocol: Male SD rats (200-250 g) were used, 6 per group in the cage. All the animals were placed under 12 hours light/cycle (i.e. 12 hours light and 12 hours dark in each day), free to food and water. All the experiments were conducted under the condition that the observers were blind to pharmaceutical treatment.
Spared nerve injury model (SNI): 10% chloral hydrate was injected intraperitoneally to anesthetize rats. […] The muscle was longitudinally separated to expose the core of sciatic nerve and the branching below: tibial nerve, common peroneal nerve and sural nerve. The tibial nerve and common peroneal nerve were ligatured and cut and small sural nerve was retained, meanwhile preventing any injury. The muscle and skin were sutured layer by layer, and then antibiotics were injected intraperitoneally for antibacterial purpose. For detailed methods, please refer to Decosterd I and Woolf C J. Spared nerve injury: an animal model of persistent peripheral neuropathic pain. 2000 August; Pain 87(2):149-58.
Method for detecting mechanical hyperalgesia in rats: firstly CFA solution was injected in the thenar of rats. After 24 hours, mechanical hyperalgesia quantitative detection was adopted to measure the paw withdrawal of rats to normal and harmless mechanical stimulation. Evaluation was conducted according to reference (Chaplan S R et al., Quantitative assessment of tactile allodynia in the rat paw. J Neurosci Methods. 1994 July; 53(1):55-63). In this method, the von Frey fibers with different bending force (equivalent to the range of 1-50 g force) were used to apply harmless mechanical stimulation. The rats were placed in organic glass box with metal mesh plate, and the von Frey fibers were applied on the surface of leg thenar. The von Frey fibers were applied vertically to the surface of thenar to generate the force that will trigger slight resistance to the leg. 2-3 seconds were maintained for every leg thenar. If the leg withdrew suddenly, positive records were recorded. The threshold was the mean of the weight that caused 50% paw withdrawal response (5-6 paw withdrawal/10 stimulations) in overall 10 stimulations.
Compounds MRK 016, C2, C3, C4, C5, C6, C7, C8 or α5IA (A5I) were dissolved in 70% PGE400 (PGE400:water=70:30 in volume). For injection dose, MRK016 was 2 mg/kg body weight; A5I was 3 mg/kg body weight; C2, C3, C4, C5, C6, C7 and C8 were 3 mg/kg body weight.
MRK016-M3 was dissolved in 90% PGE400 (PGE400:water=90:10 in volume). The doses were 10 mg/kg, 3 mg/kg, 1 mg/kg and 0.3 mg/kg, respectively for oral administration.
The method for behavioral data statistics was unpaired t-test. *, p<0.05, represents significant difference.

[12] = tested on: Human recombinant GABAA receptor containing α2 subunit; test: Electrophysiological inverse agonist efficacy on GABA-induced current; format: cell-based; conditions: change of GABA-induced current; negative = inhibition
Protocol: as §1, §7, §8, §9

[13] = target: T7, Human recombinant GABAA receptor containing α1 subunit (Homo sapiens, UniProt P14867+P18507); test: as above; format: cell-based; conditions: change of GABA-induced current; negative = inhibition
T7 construct: expressed in transfected cells; host or cells: 293 cell line
Protocol: as §1, §7, §8, §9

[14] = target: T6, Human recombinant α5-GABAA receptor; conditions: Jones et al. 2006; cited from earlier work
[15] = tested on: pentetrazol induced epilepsy in rats; test: Pentetrazol induced epilepsy assay; format: in vivo; conditions: rat, subcutaneous 1, 3, 10 and 15 mg/kg, 100 mg/kg pentetrazol 0.5 hour later
Protocol: Pentetrazol induced epilepsy assays: firstly, C5 or 70% PGE400 was injected to rats, and then 100 mg/kg pentetrazol was subcutaneously injected to rats half an hour later. Pentetrazol was dissolved in saline water. Then the convulsive response of rats was observed. Fatholahi standard was adopted to score the convulsive response. Grade 0, no response; Grade 1, rhythmic mouth and face spasm; Grade 2, fluctuating wandering spasm of body; Grade 3, systemic myoclonus and warped hip; Grade 4, body turning to one side; Grade 5, renvers and systemic tetanic convulsion. It took 30 minutes for observation after administration. The highest grade and the latency time from pentetrazol injection to the induction of the highest grade were collected.

Row | Ki [2] | Ki [3] | Ki [4] | Ki [5] | Inverse agonist efficacy, % (α3) [6] | Inverse agonist efficacy, % (α5) [8] | Inverse agonist efficacy, % (α1) [13] | Effect on pentetrazol induced epilepsy (responsive grade and latency time) [15] | SMILES | Suppression of mechanical pain ([1]; 2 mg/kg intraperitoneal, 7 days after CFA model, 2 mg/kg) | Suppression of heat pain ([7]; 2 mg/kg intraperitoneal, 3 days after CFA model, 2 mg/kg) | Binding to α5-GABAA receptor in brain / inhibition of (3H)Ro-15-1788 binding in center [9] | Side effects in Phase I clinical trial [10] | Suppression of neuropathic pain (mechanical pain threshold) ([11]; subcutaneous injection 2 mg/kg, 7 days after SNI model, 1 hour after administration) | Inverse agonist efficacy, % (α2) [12] | Inverse agonist effect of α5-GABAA receptor [14] | CFA induced inflammatory pain model (mechanical pan), analgesic effect ([1]; 3 mg/kg injection, 7 days after CFA, 3 mg/kg) | CFA induced inflammatory pain model (heat pain), analgesic effect ([7]; 3 mg/kg injection, 3 days after CFA, 3 mg/kg) | Neuropathic pain (SNI model), analgesic effect ([11]; 3 mg/kg subcutaneous, 14 days after SNI, 1 hour after administration, 3 mg/kg) | Suppression of neuropathic pain at different time points ([11]; subcutaneous 1 mg/kg or 3 mg/kg, 14 days after SNI, 0.5-12 hours after administration)
1 | 0.77 nM | 1.36 nM | 0.85 nM | 0.83 nM | −9% | −55% | −16% |  | Cc1cc(-c2nncc3c(C(C)(C)C)c(OCc4ncnn4C)nn23)no1 [MRK016, 3-tert-butyl-7-(5-methylisoxazol-3-yl)-2-(1-methyl-1H-1,2,4-triazol-5-ylmethoxy)-pyrazolo[1,5-d]-[1,2,4]triazine] | efficiently suppressed mechanical pain; also recorded: efficiently suppress mechanical pain | efficiently suppressed heat pain; also recorded: efficiently suppress heat pain | can efficiently inhibit; also recorded: focused in the brain | front heaviness, headache and nausea and vomiting | efficiently suppressed neuropathic pain | 6% |  |  |  |  | 
2 | 9.8 nM | 9.4 nM |  | 26 nM | −32% | −40% | −41% |  | Cc1cc(-c2nncc3c(C(C)(C)CO)c(OCc4ncnn4C)nn23)no1 [MRK016-M2] |  |  | not capable of binding the α5-GABAA receptor in brain |  |  | −23% | significant inverse agonist effect |  |  |  | 
3 |  |  |  |  |  |  |  | no effect | OCc1cc(-c2nnc3c4ccccc4c(OCc4ccccn4)nn23)no1 [Compound C5, {3-[6-(Pyridin-2-ylmethoxy)-[1,2,4]triazolo[3,4-a]phthalazin-3-yl]-isoxazol-5-yl}-methanol] |  |  |  |  |  |  |  | efficiently inhibit nociceptive response; also recorded: efficiently suppressed heat pain or mechanical pain response | efficiently inhibit nociceptive response; also recorded: efficiently suppressed heat pain or mechanical pain response | efficiently inhibit nociceptive response; also recorded: efficiently suppressed neuropathic pain | efficiently could inhibit nociceptive response; also recorded: efficiently suppressed neuropathic pain
